The results in this text go back to patent publication US9505754B2, “Compound useful for the treatment of degenerative and inflammatory diseases” (GALAPAGOS NV, priority 2009, dated 2016).

The test system of series [1] is collagen induced arthritis. As to the kind of experiment: Rat CIA (collagen induced arthritis) model. The class given is in vivo. As for the experimental part: Completed Freund's adjuvant (CFA) and incomplete Freund's adjuvant (IFA) were purchased from Difco. Bovine collagen type […] (CII), lipopolysaccharide (LPS), and Enbrel were obtained from Chondrex (Isle d'Abeau, France); Sigma (P4252, L'Isle d'Abeau, France), Whyett (25 mg injectable syringe, France) Acros Organics (Palo Alto, Calif.), respectively. All other reagents used were of reagent grade and all solvents were of analytical grade.
Dark Agouti rats (male, 7-8 weeks old) are obtained from Harlan Laboratories (Maison-Alfort, France). DBA/1J mice (male, 7 weeks old) were obtained from Centre d'Elevage et de Reproduction JANVIER (CERJ) (Laval, France). Rats and mice were kept on a 12 hours light/dark cycle (0700-1900). The temperature was maintained at 22° C., and food and water were provided ad libitum.
One day before the experiment, CII solution (2 mg/mL) was prepared with 0.05 M acetic acid and stored at 4° C. Just before the immunization, equal volumes of adjuvant (IFA) and CII were mixed by a homogenizer in a pre-cooled glass bottle in an ice water bath. Extra adjuvant and prolonged homogenization might be required if an emulsion is not formed.
Rat: 0.2 mL of the emulsion is injected intradermally at the base of the tail of each rat on day 1, a second booster intradermal injection (CII solution at 2 mg/mL in CFA 0.1 mL saline) is performed on day 9. This immunization method is modified from published methods (Sims N A et al., (2004) Targeting osteoclasts with zoledronic acid prevents bone destruction in collagen-induced arthritis, Arthritis Rheum. 50 2338-2346; Jou et al., 2005).
The therapeutic effects of the test compounds were tested in the rat or mouse CIA model. Animals were randomly divided into equal groups and each group contained 10 animals. All rats are immunized on day 1 and boosted on day 9. All mice were immunized on day 1 and boosted on day 21. Therapeutic dosing lasted from day 16 to day 30. The negative control group was treated with vehicle (MC 0.5%) and the positive control group with Enbrel (10 mg/kg, 3× week., s.c.). A compound of interest was typically tested at 3 doses, e.g. 3, 10, 30 mg/kg, p.o.
Arthritis was scored according the method of Khachigian 2006, Lin et al 2007 and Nishida et al. 2004). […]
The area under the curve (AUC) from day 1 to day 14 was calculated for each individual rat. The AUC of each animal was divided by the average AUC obtained for the vehicle in the study from which the data on that animal was obtained and multiplied by 100 (i.e. the AUC was expressed as a percentage of the average vehicle AUC per study).
The clinical score difference for each animal was divided by the average clinical score difference obtained for the vehicle in the study from which the data on that animal was obtained and multiplied by 100 (i.e. the difference was expressed as a percentage of the average clinical score difference for the vehicle per study).
Post-mortem, a Larsen’ score was derived for both hind paws of all rats by at least 2 scientists. The average of these scores was calculated to obtain one Larsen’ score per rat. […]

A short description of series [2]: Microsomal stability, human. The class given is in vitro ADME. The conditions noted are these: human liver microsomes, 3 μM compound, 1 hour, 37° C. As to the method: (§1) A 10 mM stock solution of compound in DMSO was diluted 1000 fold in a 182 mM phosphate buffer pH7.4 in a 96 deep well plate (Greiner, Cat no. 780285) and pre-incubated at 37° C.
(§2) 40 μL of deionised water was added to a well of a polypropylene Matrix 2D barcode labelled storage tube (Thermo Scientific) and pre-incubated at 37° C.
(§3) A Glucose-6-phophate-dehydrogenase (G6PDH) working stock solution was prepared in 182 mM phosphate buffer pH7.4 and placed on ice before use. A co-factor containing MgCl2, glucose-6-phosphate and NADP+ was prepared in deionised water and placed on ice before use. […]
(§4) These plates were sealed with sealing mats (MA96RD-04S) of www.kinesis.co.uk and samples were measured at room temperature on LCMS (ZQ 1525 from Waters) under optimized conditions using Quanoptimize to determine the appropriate mass of the parent molecule.
(§5) The samples were analyzed on LCMS with a flow rate of 1 mL/min. […]
(§6) Peak area from the parent compound at time 0 was considered to be 100% remaining. The percentage remaining after 1 hour incubation was calculated from time 0 and was calculated as the percentage remaining. […]
(§7) The data on microsomal stability are expressed as a percentage of the total amount of compound remaining after 60 minutes.
On the technique in general: Liver microsomes are vesicles of endoplasmic reticulum, rich in cytochrome P450 enzymes.

The nature of series [3]: Microsomal stability, rat. The class given is in vitro ADME. To be noted: rat liver microsomes, 3 μM compound, 1 hour, 37° C. As for the experimental part: as §1, §2, §3, §4, §5, §6, §7

Regarding `CC1(C)CN(C(=O)c2ccc(-c3cccc4nc(NC(=O)C5CC5)nn34)cc2)C1` [Compound 1, Cyclopropanecarboxylic acid {5-[4-(3,3-dimethyl-azetidine-1-carbonyl)-phenyl]-[1,2,4]triazolo[1,5-a]pyridin-2-yl}-amide], in series [1] (rat CIA, from 1 mg/kg), the endpoint clinical score entry is on record as “significant improvements” and the paw swelling entry is reported as “significant improvements”. In addition, in series [1] (rat CIA, from 10 mg/kg), the “AUC of the clinical score” value is listed as “significant improvements”. In series [1] (rat CIA, from 30 mg/kg), the “Larsen' score” value is “significant improvements”. Moreover, the “efficacy in rat CIA study readouts” value in series [1] (rat, 30, 10, 3 and 1 mg/kg) is reported as “efficacious in all readouts”. The “Microsomal stability, Human (percentage of compound remaining after 60 minutes)” value in series [2] is 76-100%. Further, the “Microsomal stability, Rat (percentage of compound remaining after 60 minutes)” value in series [3] is listed as 76-100%.
